In ChEMBL document CHEMBL1143652, “Joys of molecules. 2. Endeavors in chemical biology and medicinal chemistry” (J Med Chem, 2005):

Columns and labels:
Somatostatin receptor = experiment: Binding affinity for SRIF (somatostatin) receptor; format: protein assay
1A9/ptx-10 [1] = experiment: (§1) Inhibitory concentration against beta-tubulin mutant 1A9PTX10 cell growth; format: functional, cell-based; settings: Homo sapiens
1A9/ptx-22 [2] = experiment: (§2) Inhibitory concentration against beta-tubulin mutant 1A9PTX22 cell line; format: functional, cell-based; settings: Homo sapiens
1A9/ptx-10 [3] = experiment: as §1; format: functional, cell-based; settings: Homo sapiens; remark: listed apart in the source
1A9/ptx-22 [4] = experiment: as §2; format: functional, cell-based; settings: Homo sapiens; remark: listed apart in the source
1A9 = experiment: Inhibitory concentration against ovarian carcinoma 1A9 cell growth; format: functional, cell-based; settings: Homo sapiens

SMILES	IC50 (Somatostatin receptor) [nM]	IC50 (1A9/ptx-10 [1]) [nM]	IC50 (1A9/ptx-22 [2]) [nM]	IC50 (1A9/ptx-10 [3]) [nM]	IC50 (1A9/ptx-22 [4]) [nM]	IC50 (1A9) [nM]
NCCCCCOCC1CC(OCc2ccccc2)C(OCc2ccccc2)C(OCCc2cc3ccccc3[nH]2)O1 (stereo not given)	47000	–	–	–	–	–
OCCCCCCNCC1OC(OCCc2cc3ccccc3[nH]2)C(OCc2ccccc2)CC1OCc1ccccc1 (stereo not given)	34000	–	–	–	–	–
OCCCCCCNCC1OC(OCCc2cc3ccccc3[nH]2)C(OCc2ccccc2)C(OCc2ccccc2)C1OCc1ccccc1 (stereo not given)	5100	–	–	–	–	–
C/C(=C\c1ccc(C)cn1)[C@@H]1C[C@@H]2C[C@H]2CCC[C@H](C)[C@H](O)[C@@H](C)C(=O)C(C)(C)CCC(=O)O1	–	5.9	1.4	5.9	1.4	0.6
NCCCCCOCC1OC(OCCc2cc3ccccc3[nH]2)CC(OCc2ccccc2)C1OCc1ccccc1 (stereo not given)	35000	–	–	–	–	–
CSc1nc(/C=C(\C)[C@@H]2C[C@@H]3C[C@H]3CCC[C@H](C)[C@H](O)[C@@H](C)C(=O)C(C)(C)CCC(=O)O2)cs1	–	3.2	0.8	3.2	0.8	1.2
NCCCCCOCC1OC(OCCc2cc3ccccc3[nH]2)C(OCc2ccccc2)CC1OCc1ccccc1 (stereo not given)	8400	–	–	–	–	–
NCCCCCOC[C@@H]1O[C@@H](OCCc2cc3ccccc3[nH]2)[C@@H](OCc2ccccc2)[C@@H](OCc2ccccc2)[C@@H]1OCc1ccccc1	15000	–	–	–	–	–
OCCCCCNCC1OC(OCCc2cc3ccccc3[nH]2)C(OCc2ccccc2)CC1OCc1ccccc1 (stereo not given)	10000	–	–	–	–	–
C/C(=C\c1ccc(C)cn1)[C@@H]1C[C@@H]2C[C@@]2(C)CCC[C@H](C)[C@H](O)[C@@H](C)C(=O)C(C)(C)CCC(=O)O1	–	10.9	5.6	10.9	5.6	1.74
OCCCCCNCC1OC(OCCc2cc3ccccc3[nH]2)C(OCc2ccccc2)C(OCc2ccccc2)C1OCc1ccccc1 (stereo not given)	14000	–	–	–	–	–
C/C(=C\c1csc(C)n1)[C@@H]1C[C@@H]2C[C@@]2(C)CCC[C@H](C)[C@H](O)[C@@H](C)C(=O)C(C)(C)CCC(=O)O1	–	52	5	52	5	15
C/C(=C\c1ccc(C)cn1)[C@@H]1C[C@@H]2C[C@@H]2CCC[C@H](C)[C@H](O)[C@@H](C)C(=O)C(C)(C)[C@@H](O)CC(=O)O1	–	19.2	4.22	19.2	4.22	2.5
C/C(=C\c1csc(C)n1)[C@@H]1C[C@@H]2C[C@H]2CCC[C@H](C)[C@H](O)[C@@H](C)C(=O)C(C)(C)CCC(=O)O1	–	17.2	4.7	17.2	4.7	10.1
C/C(=C\c1csc(C)n1)[C@@H]1C[C@@H]2C[C@@H]2CCC[C@H](C)[C@H](O)[C@@H](C)C(=O)C(C)(C)[C@@H](O)CC(=O)O1	–	9	2	9	2	0.25
CSc1nc(/C=C(\C)[C@@H]2C[C@@H]3C[C@@]3(C)CCC[C@H](C)[C@H](O)[C@@H](C)C(=O)C(C)(C)CCC(=O)O2)cs1	–	5.7	11.5	5.7	11.5	3.5
CSc1nc(/C=C(\C)[C@@H]2C[C@@H]3O[C@]3(C)CCC[C@H](C)[C@H](O)[C@@H](C)C(=O)C(C)(C)[C@@H](O)CC(=O)O2)cs1	–	0.26	0.25	0.26	0.25	0.17
NCCCCCCOCC1OC(OCCc2cc3ccccc3[nH]2)C(OCc2ccccc2)CC1OCc1ccccc1 (stereo not given)	6600	–	–	–	–	–
NCCCCCCOC[C@@H]1O[C@@H](OCCc2cc3ccccc3[nH]2)[C@@H](OCc2ccccc2)[C@@H](OCc2ccccc2)[C@@H]1OCc1ccccc1	11000	–	–	–	–	–
